Laboratory results reported in patent publication US20180273528A1 (LES LABORATOIRES SERVIER, priority 2015, published 2018).

Legend:
DYRK1A [1] = target: T1, DYRK1A (Homo sapiens, UniProt Q13627); assay: Kinase TR-FRET assay, DYRK1A; assay type: biochemical; set-up: full-length, wild-type human DYRK1A (NM_001396) with an HA tag; expressed in transfected cells; host or cells: human U2-OS osteosarcoma cells, transient transfection of a pcDNA3.1 plasmid; settings: full-length human kinase, 10 μM ATP
Method: (§1) Inhibition of the enzymatic activity of human kinases was evaluated in a Time-Resolved Fluorescence Resonance Energy Transfer (TR-FRET) assay in 384-well reaction plates. […] Test compounds of the invention were added in reaction buffer at a range of concentrations from 0.1 nM to 30 μM. Following addition of EDTA (Sigma E7889, 10 mM) to stop the reaction, Europium-labelled mouse monoclonal antibody recognizing phospho-Thr232 in MBP (Perkin Elmer TRF0201, 1 nM) was added.

DYRK1A [2] = target: T1, DYRK1A; assay: Cellular DYRK1 autophosphorylation assay in U2-OS cells; assay type: cell-based; set-up: full-length, wild-type human DYRK1A (NM_001396) with an HA tag; expressed in transfected cells; host or cells: human U2-OS osteosarcoma cells, transient transfection of a pcDNA3.1 plasmid; settings: U2-OS cells transfected with HA-tagged human DYRK1A, 5 hours exposure; read-out: IC50 (μM) P-Ser520-Dyrk1A -Cell assay
Method: On day 2, cells were exposed to a range of concentrations of the test compounds of the invention for 5 hours. […] The relative levels of phospho-Ser520-DYRK1A were assayed using either western blotting or the Mesoscale ELISA platform. For analysis by western blot, lysates were diluted into Laemmli sample buffer (Bio-Rad) containing 5% v/v β-mercaptoethanol, heated for 5 min at 95° C., and resolved on Tris-glycine gels or NuPage Bis-Tris gels (Novex; Invitrogen). Biotinylated molecular weight standards (Cell Signaling Technology) were included in all gels. Proteins were transferred to nitrocellulose membranes (Hybond, ECL; Amersham), which were blocked in Tris-buffered saline/0.1% tween 20 (TBST) containing 5% milk, and probed at 4° C. overnight with anti-phospho-Ser520-DYRK1A antibody (Eurogentec SE6974-75; 0.23 μg/ml in 5% BSA) or anti DYRK1A antibody (Abnova H00001859; 0.5 μg/ml in 5% milk). Peroxidase-conjugated secondary antibodies were diluted into 5% milk and applied to membranes for 1 h at 20° C. Chemiluminescence detection was performed using the ECL plus western blotting detection kit (Amersham) and was recorded on ECL plus hyperfilm (Amersham). Blots were scanned using the Bio-Rad GS-800 calibrated densitometer and quantitative analysis of western blots was performed using TotalLab software (Amersham). IC50 values for inhibition of phospho-Ser520-DYRK1A were calculated from dose-response curves plotting the ratio between phospho-Ser520-DYRK1A and total DYRK1A signals at each concentration. […] Anti-phospho-Ser520-DYRK1A antibody (Eurogentec SE6974-75; […]) and anti DYRK1A antibody (Abnova H00001859; 3 μg/ml) was then added for 1 hour at RT, followed by addition of Sulfa-TAG anti-rabbit detection antibody (ref MSD R32AB; 1 μg/ml) and Sulfa-TAG anti-mouse detection antibody (ref MSD R32-AC-1; 1 μg/ml). After a further 1 hour, Read Buffer was added and plates were read on the Sector Imager 2400 (Mesoscale). IC50 values for inhibition of phospho-Ser520-DYRK1A were calculated from dose-response curves.

[3] = target: T2, His-TEV-DYRK1A Kinase domain (aa127-485) (Homo sapiens, UniProt Q13627); assay: Kinase ADP assay (ADP Hunter), DYRK1A kinase domain; assay type: biochemical; settings: 20 μM ATP
T2 construct: His-TEV-DYRK1A Kinase domain (aa127-485); His tag (N); TEV protease cleavage site (N)
Procedure, shortened: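 Compounds incubated 10 min at 30 °C with 20 nM enzyme, 40 μM peptide substrate and 20 μM ATP in pH 7.4 Hepes buffer with 10 mM MgCl2. ADP formed detected by ADP Hunter Plus reagents after 20 min at 30 °C, fluorescence read at 590 nm.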

DYRK1B = target: T3, DYRK1B (Homo sapiens, UniProt Q9Y463); assay: Kinase TR-FRET assay, DYRK1B; assay type: biochemical; settings: full-length human kinase, 10 μM ATP
T3 construct: full-length human kinases from Carna Biosciences; purchased Carna Biosciences 04-131
Method: as §1

T3 sequence (Q9Y463 whole entry): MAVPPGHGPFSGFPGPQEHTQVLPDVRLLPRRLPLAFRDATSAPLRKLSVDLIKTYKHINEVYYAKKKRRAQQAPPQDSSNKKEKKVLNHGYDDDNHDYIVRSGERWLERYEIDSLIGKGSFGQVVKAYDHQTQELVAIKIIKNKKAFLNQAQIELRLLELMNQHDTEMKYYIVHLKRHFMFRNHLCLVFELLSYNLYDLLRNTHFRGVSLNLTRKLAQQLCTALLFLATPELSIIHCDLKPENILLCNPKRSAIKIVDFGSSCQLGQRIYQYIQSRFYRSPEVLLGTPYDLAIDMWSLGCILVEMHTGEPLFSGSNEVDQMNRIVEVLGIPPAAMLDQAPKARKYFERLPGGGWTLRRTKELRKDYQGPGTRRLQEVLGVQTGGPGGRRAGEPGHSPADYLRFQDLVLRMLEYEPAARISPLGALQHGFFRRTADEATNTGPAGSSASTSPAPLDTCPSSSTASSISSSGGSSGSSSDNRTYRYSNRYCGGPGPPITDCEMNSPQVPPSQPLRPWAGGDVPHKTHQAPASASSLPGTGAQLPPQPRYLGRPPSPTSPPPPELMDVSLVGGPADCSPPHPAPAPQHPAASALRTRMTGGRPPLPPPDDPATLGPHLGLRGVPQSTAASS

Row | Structure (SMILES) | IC50 (DYRK1A [1]) | IC50 (DYRK1A [2]) | IC50 [3] | IC50 (DYRK1B)
1 | Cc1nc2ccc(-c3cc(N)nc(N)c3)nc2n1C1Cc2ccccc2C1 [Example 12, 4-[3-(2,3-dihydro-1H-inden-2-yl)-2-methyl-3H-imidazo[4,5-b]pyridin-5-yl]pyridine-2,6-diamine] | 0.002 µM | 0.07 µM | 0.009 µM | 0.003 µM
2 | Cc1nc2ccc(-c3cc(N)nc(N)c3)nc2n1CCC1CC1 [Example 17, 4-[3-(2-cyclopropylethyl)-2-methyl-3H-imidazo[4,5-b]pyridin-5-yl]pyridine-2,6-diamine] | 0.006 µM | 0.063 µM | 0.011 µM | 
3 | CCC(CC)Cn1c(C)nc2ccc(-c3cc(N)nc(N)c3)nc21 [Example 18, 4-[3-(2-ethylbutyl)-2-methyl-3H-imidazo[4,5-b]pyridin-5-yl]pyridine-2,6-diamine] | 0.002 µM | 0.108 µM | 0.013 µM | 
4 | COc1cc(Cl)ccc1Cn1c(C)nc2ccc(-c3cc(N)nc(N)c3)nc21 [Example 39, 4-[3-(4-chloro-2-methoxybenzyl)-2-methyl-3H-imidazo[4,5-b]pyridin-5-yl]pyridine-2,6-diamine] | 0.245 µM |  | 0.045 µM | 
5 | Cc1nc2ccc(-c3cc(N)nc(N)c3)nc2n1Cc1ccc(C#N)cc1 [Example 40, 4-{[5-(2,6-diaminopyridin-4-yl)-2-methyl-3H-imidazo[4,5-b]pyridin-3-yl]methyl}benzonitrile] | 0.154 µM |  | 0.187 µM | 
6 | Cc1nc2ccc(-c3cc(N)nc(N)c3)nc2n1Cc1ccc(OC(F)F)cc1 [Example 43, 4-{3-[4-(difluoromethoxy)benzyl]-2-methyl-3H-imidazo[4,5-b]pyridin-5-yl}pyridine-2,6-diamine] | 0.116 µM |  | 0.109 µM | 
7 | CSCCCn1c(C)nc2ccc(-c3cc(N)nc(N)c3)nc21 [Example 44, 4-{2-methyl-3-[3-(methylsulfanyl)propyl]-3H-imidazo[4,5-b]pyridin-5-yl}pyridine-2,6-diamine] | 0.019 µM | 0.023 µM | 0.011 µM | 
8 | Cc1nn(C)c(C)c1Cn1c(C)nc2ccc(-c3cc(N)nc(N)c3)nc21 [Example 45, 4-{2-methyl-3-[(3,5-trimethyl-1H-pyrazol-4-yl)methyl]-3H-imidazo[4,5-b]pyridin-5-yl}pyridine-2,6-diamine] | 0.177 µM |  | 0.055 µM | 
9 | Cc1nc2ccc(-c3cc(N)nc(N)c3)nc2n1Cc1cc(F)ccc1F [Example 46, 4-[3-(2,5-difluorobenzyl)-2-methyl-3H-imidazo[4,5-b]pyridin-5-yl]pyridine-2,6-diamine] | 0.056 µM |  | 0.035 µM | 
10 | Cc1nc2ccc(-c3cc(N)nc(N)c3)nc2n1Cc1cccc(Cl)c1 [Example 48, 4-[3-(3-chlorobenzyl)-2-methyl-3H-imidazo[4,5-b]pyridin-5-yl]pyridine-2,6-diamine] | 0.116 µM |  | 0.056 µM | 
11 | Cc1nc2ccc(-c3cc(N)nc(N)c3)nc2n1CCC(C)(C)C [Example 52, 4-[3-(3,3-dimethylbutyl)-2-methyl-3H-imidazo[4,5-b]pyridin-5-yl]pyridine-2,6-diamine] | 0.006 µM |  | 0.006 µM | 0.008 µM
12 | Cc1nc2ccc(-c3cc(N)nc(N)c3)nc2n1C1CCCCC1 [Example 54, 4-(3-cyclohexyl-2-methyl-3H-imidazo[4,5-b]pyridin-5-yl)pyridine-2,6-diamine] | 0.003 µM | 0.023 µM | 0.006 µM | 0.003 µM
13 | Cc1nc2ccc(-c3cc(N)nc(N)c3)nc2n1C(C)(C)c1ccccc1 [Example 60, 4-[2-methyl-3-(2-phenylpropan-2-yl)-3H-imidazo[4,5-b]pyridin-5-yl]pyridine-2,6-diamine] | 0.149 µM |  | 0.51 µM | 
14 | Cc1nc2ccc(-c3cc(N)nc(N)c3)nc2n1C1CCCc2ccccc21 (centres unmarked) [Example 62, 4-[2-methyl-3-(1,2,3,4-tetrahydronaphthalen-1-yl)-3H-imidazo[4,5-b]pyridin-5-yl]pyridine-2,6-diamine] | 0.166 µM |  | 0.781 µM | 
15 | CCC(c1ccccc1)n1c(C)nc2ccc(-c3cc(N)nc(N)c3)nc21 (centres unmarked) [Example 67, 4-[2-methyl-3-(1-phenylpropyl)-3H-imidazo[4,5-b]pyridin-5-yl]pyridine-2,6-diamine] | 0.104 µM |  | 0.903 µM | 
16 | COc1ccccc1CCCn1c(C)nc2ccc(-c3cc(N)nc(N)c3)nc21 [Example 69, 4-{3-[3-(2-methoxyphenyl)propyl]-2-methyl-3H-imidazo[4,5-b]pyridin-5-yl}pyridine-2,6-diamine] | 0.002 µM |  | 0.007 µM | 
17 | Cc1nc2ccc(-c3cc(N)nc(N)c3)nc2n1C1CC2CCC1C2 (centres unmarked) [Example 155, 4-[3-(bicyclo[2.2.1]hept-2-yl)-2-methyl-3H-imidazo[4,5-b]pyridin-5-yl]pyridine-2,6-diamine] | 0.012 µM |  | 0.005 µM | 
18 | CCc1nc2ccc(-c3cc(N)nc(N)c3)nc2n1C1Cc2ccccc2C1 [Example 158, 4-[3-(2,3-dihydro-1H-inden-2-yl)-2-ethyl-3H-imidazo[4,5-b]pyridin-5-yl]pyridine-2,6-diamine] | 0.008 µM |  | 0.014 µM | 0.016 µM
19 | Cn1c(C(F)F)nc2ccc(-c3cc(N)nc(N)c3)nc21 [Example 228, 4-[2-(difluoromethyl)-3-methyl-3H-imidazo[4,5-b]pyridin-5-yl]pyridine-2,6-diamine] | 0.004 µM |  | 0.01 µM | 0.012 µM
20 | Cn1c(C(F)(F)F)nc2ccc(-c3cc(N)nc(N)c3)nc21 [Example 229, 4-[3-methyl-2-(trifluoromethyl)-3H-imidazo[4,5-b]pyridin-5-yl]pyridine-2,6-diamine] | 0.061 µM |  | 0.081 µM | 
21 | CCCCn1c(C)nc2ccc(-c3cc(N)nc(NC(=O)COc4ccccc4)c3)nc21 [Example 230, N-[6-amino-4-(3-butyl-2-methyl-3H-imidazo[4,5-b]pyridin-5-yl)pyridin-2-yl]-2-phenoxyacetamide] | 0.221 µM |  | 0.928 µM | 
22 | CCCCn1c(C)nc2ccc(-c3cc(N)nc(NC(=O)c4ccccc4Cl)c3)nc21 [Example 233, N-[6-amino-4-(3-butyl-2-methyl-3H-imidazo[4,5-b]pyridin-5-yl)pyridin-2-yl]-2-chlorobenzamide] | 0.224 µM |  | 0.303 µM | 
23 | CCCCn1c(C)nc2ccc(-c3cc(N)nc(NC(=O)C4CCCCC4)c3)nc21 [Example 234, N-[6-amino-4-(3-butyl-2-methyl-3H-imidazo[4,5-b]pyridin-5-yl)pyridin-2-yl]cyclohexanecarboxamide] | 0.09 µM |  | 0.236 µM | 
24 | CCCCn1c(C)nc2ccc(-c3ccnc(N)c3)nc21 [Example 236, 4-(3-butyl-2-methyl-3H-imidazo[4,5-b]pyridin-5-yl)pyridin-2-amine] | 0.013 µM |  | 0.023 µM | 0.018 µM
25 | Cc1nc2ccc(-c3ccnc(N)c3)nc2n1CC1CC1 [Example 238, 4-[3-(cyclopropylmethyl)-2-methyl-3H-imidazo[4,5-b]pyridin-5-yl]pyridin-2-amine] | 0.009 µM |  | 0.05 µM | 0.02 µM
